Test [1] has as its system CD8+ T cells. The test can be described thus: In vitro T-cell priming (immunogenicity) with aAPCs loaded with peptide/MHC and anti-CD28, pMHC multimer readout. The test is classed as cell-based, human. Conditions: for Wells positive [%]: in vitro immunogenicity, HLA-A*02 restricted peptides, positive wells among evaluable. From the text: In order to obtain information regarding the immunogenicity of the TUMAPs of the present invention, the inventors performed investigations using an in vitro T-cell priming assay based on repeated stimulations of CD8+ T cells with artificial antigen presenting cells (aAPCs) loaded with peptide/MHC complexes and anti-CD28 antibody.
In order to perform in vitro stimulations by artificial antigen presenting cells loaded with peptide-MHC complex (pMHC) and anti-CD28 antibody, the inventors first isolated CD8+ T cells from fresh HLA-A*02 leukapheresis products via positive selection using CD8 microbeads (Miltenyi Biotec, Bergisch-Gladbach, Germany) of healthy donors obtained from the University clinics Mannheim, Germany, after informed consent.
PBMCs and isolated CD8+ lymphocytes were incubated in T-cell medium (TCM) until use consisting of RPMI-Glutamax (Invitrogen, Karlsruhe, Germany) supplemented with 10% heat inactivated human AB serum (PAN-Biotech, Aidenbach, Germany), 100 U/ml Penicillin/100 μg/ml Streptomycin (Cambrex, Cologne, Germany), 1 mM sodium pyruvate (CC Pro, Oberdorla, Germany), 20 μg/ml Gentamycin (Cambrex). 2.5 ng/ml IL-7 (PromoCell, Heidelberg, Germany) and 10 U/ml IL-2 (Novartis Pharma, Nürnberg, Germany) were also added to the TCM at this step.
Generation of pMHC/anti-CD28 coated beads, T-cell stimulations and readout was performed in a highly defined in vitro system using four different pMHC molecules per stimulation condition and 8 different pMHC molecules per readout condition.
The purified co-stimulatory mouse IgG2a anti human CD28 Ab 9.3 (Jung et al., 1987) was chemically biotinylated using Sulfo-N-hydroxysuccinimidobiotin as recommended by the manufacturer (Perbio, Bonn, Germany). Beads used were 5.6 μm diameter streptavidin coated polystyrene particles (Bangs Laboratories, Illinois, USA).
pMHC used for positive and negative control stimulations were A*0201/MLA-001 (peptide […] (SEQ ID NO. 664) from modified Melan-A/MART-1) and A*0201/DDX5-001 ([…] from DDX5, SEQ ID NO. 665), respectively.
800.000 beads/200 μl were coated in 96-well plates in the presence of 4×12.5 ng different biotin-pMHC, washed and 600 ng biotin anti-CD28 were added subsequently in a volume of 200 μl. Stimulations were initiated in 96-well plates by co-incubating 1×10^6 CD8+ T cells with 2×10^5 washed coated beads in 200 μl TCM supplemented with 5 ng/ml IL-12 (PromoCell) for 3 days at 37° C. Half of the medium was then exchanged by fresh TCM supplemented with 80 U/ml IL-2 and incubating was continued for 4 days at 37° C. This stimulation cycle was performed for a total of three times. For the pMHC multimer readout using 8 different pMHC molecules per condition, a two-dimensional combinatorial coding approach was used as previously described (Andersen et al., 2012) with minor modifications encompassing coupling to 5 different fluorochromes. Finally, multimeric analyses were performed by staining the cells with Live/dead near IR dye (Invitrogen, Karlsruhe, Germany), CD8-FITC antibody clone SK1 (BD, Heidelberg, Germany) and fluorescent pMHC multimers. For analysis, a BD LSRII SORP cytometer equipped with appropriate lasers and filters was used. Peptide specific cells were calculated as percentage of total CD8+ cells. Evaluation of multimeric analysis was done using the FlowJo software (Tree Star, Oregon, USA). In vitro priming of specific multimer+CD8+ lymphocytes was detected by comparing to negative control stimulations.
Exemplary flow cytometry results after TUMAP-specific multimer staining for two peptides of the invention are shown in FIG. 3 together with corresponding negative controls.

Test [2] concerns the target HLA-A*02:01 (Homo sapiens, UniProt P04439, D140Y/D185E/D98H/E176V/E277Q/G131W/G231S/I119V/I121R/I166T/I218V/L300P/L318F/N151K/N90K/P208A/P217A/Q86G/Q94H/R138H/R169H/T345S). The test can be described thus: MHC binding assay (UV-ligand exchange, β2m ELISA, peptide exchange yield). Conditions: MHC class I binding score; binding to HLA-A*02:01 ranged by peptide exchange yield (UV-ligand exchange, β2m ELISA). The method in brief: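 Binding is expressed as peptide exchange yield: stabilized MHC complexes were quantified by β2m ELISA, with a 450 nm TMB read-out on streptavidin-coated plates. Complexes came from UV-ligand exchange, where UV irradiation cleaves a photolabile peptide so the candidate peptide can load.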

For “3 (SLASKLTTL; listed as Homo sapiens) [compound 3]”, in test [1], the “Wells positive [%]” value is “″+″ (<20% = +)”. In test [2], the Peptide exchange entry is “″++++″ (≧75% = ++++)”.

With “5 (HLTEVYPEL; listed as Homo sapiens) [compound 5]”, in test [1], the “Wells positive [%]” value is “″+++″ (50%-69% = +++)”. In addition, the Peptide exchange result in test [2] is “″+++″ (≧50% = +++)”.

On to “7 (SLVGLLLYL; listed as Homo sapiens) [compound 7]”, for which the “Wells positive [%]” value in test [1] was “″++″ (20%-49% = ++)”. Moreover, the Peptide exchange entry in test [2] was “″++++″ (≧75% = ++++)”.

“8 (FTLGNVVGMYL; listed as Homo sapiens) [compound 8]”: the “Wells positive [%]” value in test [1] is given as “″+″ (<20% = +)”. Also, the Peptide exchange entry in test [2] is recorded as “″++++″ (≧75% = ++++)”.

Regarding “11 (KIFEMLEGV; listed as Homo sapiens) [compound 11]”, the “Wells positive [%]” value in test [1] was “″+″ (<20% = +)”. Besides, in test [2], the Peptide exchange entry was “″+++″ (≧50% = +++)”.

Take “17 (GLLPGDRLVSV; listed as Homo sapiens) [compound 17]”: in test [1], the “Wells positive [%]” value was “″++″ (20%-49% = ++)”. In addition, in test [2], the Peptide exchange entry is recorded as “″+++″ (≧50% = +++)”.

In the case of “19 (FMVDNEAIYDI; listed as Homo sapiens) [compound 19]”, the “Wells positive [%]” value in test [1] is recorded as “″++″ (20%-49% = ++)”. The Peptide exchange result in test [2] is “″++++″ (≧75% = ++++)”.

As to “36 (YVLEDLEVTV; listed as Homo sapiens) [compound 36]”, in test [1], the “Wells positive [%]” value is on record as “″+″ (<20% = +)”. Further, the Peptide exchange result in test [2] is listed as “″++″ (≧20% = ++)”.

In the case of “38 (FLLEDDIHVS; listed as Homo sapiens) [compound 38]”, the “Wells positive [%]” value in test [1] is “″+″ (<20% = +)”. For the same substance, the Peptide exchange result in test [2] was “″+++″ (≧50% = +++)”.

For “40 (TLLVKVFSV; listed as Homo sapiens) [compound 40]”, the “Wells positive [%]” value in test [1] was “″++″ (20%-49% = ++)”. The Peptide exchange entry in test [2] is on record as “″+++″ (≧50% = +++)”.

In the case of “48 (ALAELYEDEV; listed as Homo sapiens) [compound 48]”, in test [1], the “Wells positive [%]” value is listed as “″+″ (<20% = +)”. Further, the Peptide exchange result in test [2] is “″+++″ (≧50% = +++)”.

For “49 (YLPAVFEEV; listed as Homo sapiens) [compound 49]”, the “Wells positive [%]” value in test [1] is given as “″++″ (20%-49% = ++)”. Further, in test [2], the Peptide exchange entry is “″+++″ (≧50% = +++)”.

As to “56 (KLYEGIPVLL; listed as Homo sapiens) [compound 56]”, the “Wells positive [%]” value in test [1] is given as “″+″ (<20% = +)”. Also, in test [2], the Peptide exchange entry is “″++++″ (≧75% = ++++)”.

For “60 (SLTIDGIYYV; listed as Homo sapiens) [compound 60]”, the “Wells positive [%]” value in test [1] is on record as “″++++″ (> = 70% = ++++)”. Also, the Peptide exchange entry in test [2] is on record as “″++++″ (≧75% = ++++)”.

For the substance “61 (FLQGYQLHL; listed as Homo sapiens) [compound 61]”, the “Wells positive [%]” value in test [1] was “″++″ (20%-49% = ++)”. In addition, the Peptide exchange entry in test [2] is “″++++″ (≧75% = ++++)”.

With “79 (SLFIGEKAVLL; listed as Homo sapiens) [compound 79]”, the “Wells positive [%]” value in test [1] is recorded as “″+″ (<20% = +)”. In addition, in test [2], the Peptide exchange result is given as “″+++″ (≧50% = +++)”.

Take “108 (ALFPGVALLLA; listed as Homo sapiens) [compound 108]”: the “Wells positive [%]” value in test [1] is recorded as “″++″ (20%-49% = ++)”. For the same substance, the Peptide exchange entry in test [2] is listed as “″++++″ (≧75% = ++++)”.

Consider “113 (GLLPTPLFGV; listed as Homo sapiens) [compound 113]”, for which the “Wells positive [%]” value in test [1] was “″+″ (<20% = +)”. Further, the Peptide exchange entry in test [2] is listed as “″+++″ (≧50% = +++)”.

Regarding “118 (KLIDNNINV; listed as Homo sapiens) [compound 118]”, the “Wells positive [%]” value in test [1] is “″+″ (<20% = +)”. Also, the Peptide exchange entry in test [2] is reported as “″+++″ (≧50% = +++)”.

In the case of “141 (YLDFSNNRL; listed as Homo sapiens) [compound 141]”, in test [1], the “Wells positive [%]” value is “″+″ (<20% = +)”. Also, the Peptide exchange entry in test [2] is listed as “″++″ (≧20% = ++)”.

“143 (LLLDITPEI; listed as Homo sapiens) [compound 143]”: in test [1], the “Wells positive [%]” value is recorded as “″+″ (<20% = +)”. Also, the Peptide exchange entry in test [2] was “″++++″ (≧75% = ++++)”.

Regarding “150 (RLWEEGEELEL; listed as Homo sapiens) [compound 150]”, the “Wells positive [%]” value in test [1] is “″+″ (<20% = +)”. For the same substance, in test [2], the Peptide exchange entry is “″+++″ (≧50% = +++)”.

“152 (ILFEDIFDV; listed as Homo sapiens) [compound 152]”: the “Wells positive [%]” value in test [1] is “″++″ (20%-49% = ++)”. For the same substance, in test [2], the Peptide exchange entry is “″+++″ (≧50% = +++)”.

As for “157 (SLNDEVPEV; listed as Homo sapiens) [compound 157]”, the “Wells positive [%]” value in test [1] is “″+++″ (50%-69% = +++)”. Besides, the Peptide exchange entry in test [2] is reported as “″++″ (≧20% = ++)”.

Consider “166 (YLNHLEPPV; listed as Homo sapiens) [compound 166]”, for which, in test [1], the “Wells positive [%]” value is given as “″++++″ (> = 70% = ++++)”. Also, the Peptide exchange entry in test [2] is recorded as “″+++″ (≧50% = +++)”.

In the case of “191 (LLQEGQALEYV; listed as Homo sapiens) [compound 191]”, the “Wells positive [%]” value in test [1] is on record as “″+++″ (50%-69% = +++)”. In addition, in test [2], the Peptide exchange result is “″++″ (≧20% = ++)”.

As for “198 (KTINKVPTV; listed as Homo sapiens) [compound 198]”, the “Wells positive [%]” value in test [1] is given as “″++″ (20%-49% = ++)”. In addition, the Peptide exchange entry in test [2] is “″+++″ (≧50% = +++)”.

Take “199 (ALQDVPLSSV; listed as Homo sapiens) [compound 199]”: the “Wells positive [%]” value in test [1] is “″+″ (<20% = +)”. For the same substance, the Peptide exchange result in test [2] was “″+++″ (≧50% = +++)”.

With “215 (QLINHLHAV; listed as Homo sapiens) [compound 215]”, in test [1], the “Wells positive [%]” value was “″++″ (20%-49% = ++)”. Besides, the Peptide exchange entry in test [2] is given as “″+++″ (≧50% = +++)”.

For “242 (AIAYILQGV; listed as Homo sapiens) [compound 242]”, in test [1], the “Wells positive [%]” value was “″+++″ (50%-69% = +++)”. The Peptide exchange result in test [2] is on record as “″++″ (≧20% = ++)”.

For the substance “247 (VLLPNDLLEKV; listed as Homo sapiens) [compound 247]”, in test [1], the “Wells positive [%]” value is “″+″ (<20% = +)”. For the same substance, the Peptide exchange entry in test [2] is recorded as “″+++″ (≧50% = +++)”.

On to “283 (ALYIGDGYVIHLA; listed as Homo sapiens) [compound 283]”, for which the donors result in test [1] (in vitro immunogenicity of HLA class I peptides, percentage of positive donors) is on record as “+++ (50%-69% = +++)”. In addition, the wells result in test [1] (in vitro immunogenicity of HLA class I peptides, percentage of positive wells) was “+ (<20% = +)”. For the same substance, the Peptide exchange result in test [2] is “″+++″ (≧50% = +++)”.

As for “319 (SLEPQIQPV; listed as Homo sapiens) [compound 319]”, the “Wells positive [%]” value in test [1] was “″+″ (<20% = +)”. Moreover, in test [2], the Peptide exchange entry was “″++″ (≧20% = ++)”.

As for “384 (ILFANPNIFV; listed as Homo sapiens) [compound 384]”, in test [1], the “Wells positive [%]” value was “″+″ (<20% = +)”. Besides, the Peptide exchange result in test [2] is listed as “″+++″ (≧50% = +++)”.

Turning to “395 (ALALGGIAVV; listed as Homo sapiens) [compound 395]”, the “Wells positive [%]” value in test [1] was “″+++″ (50%-69% = +++)”. In addition, in test [2], the Peptide exchange result is “″++++″ (≧75% = ++++)”.

“443 (GLWEIENNPTV; listed as Homo sapiens) [compound 443]”: in test [1], the “Wells positive [%]” value is reported as “″+″ (<20% = +)”. Besides, the Peptide exchange result in test [2] is listed as “″+++″ (≧50% = +++)”.

Source of the values: patent US20170037111A1, “Novel peptides and combination of peptides for use in immunotherapy against ovarian cancer and other cancers” (immatics biotechnologies GmbH, priority 2015, published 2017).
